# Assay results published in article PMC10132538, “Regulation of the two-pore domain potassium channel, THIK-1 and THIK-2, by G protein coupled receptors” (PLOS ONE, 2023).
# Tests used:
# THIK-1 channel [1] = target: T1, THIK-1 channel (Mus musculus, UniProt Q8R1P5); assay: Effect of DAG analogue on THIK-1 channel current (I10th/I0); assay type: cell-based; settings: 50 sec after application
# T1 construct: expressed in transfected cells; host or cells: HEK293T
# T1 sequence (Q8R1P5 1-405): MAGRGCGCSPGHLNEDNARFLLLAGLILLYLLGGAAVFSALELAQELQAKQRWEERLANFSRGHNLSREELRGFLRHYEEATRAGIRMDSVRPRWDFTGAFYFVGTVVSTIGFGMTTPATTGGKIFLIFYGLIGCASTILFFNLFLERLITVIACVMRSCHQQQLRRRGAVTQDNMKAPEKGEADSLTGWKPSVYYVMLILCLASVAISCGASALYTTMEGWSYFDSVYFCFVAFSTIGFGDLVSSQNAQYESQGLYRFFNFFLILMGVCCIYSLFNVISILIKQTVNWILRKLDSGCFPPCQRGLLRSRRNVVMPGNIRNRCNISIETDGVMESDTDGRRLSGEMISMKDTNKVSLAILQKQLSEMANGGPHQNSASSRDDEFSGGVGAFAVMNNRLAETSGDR
# Source text: (§1) Pertussis toxin (PTX) was purchased from Wako (Osaka, Japan).
# Fig 5 Effects of OAG on THIK-1 channel current. (A) Current and membrane potential relationships before and after application of OAG. Ramp pulses were applied ever 5 sec before and after application of OAG. The current and membrane potential relationships before (black) and 50 sec after application of the indicated concentration of OAG (red) are shown. (B) Effects of OAG on THIK-1 channel. Circles indicate the ratio of the current amplitudes after application of OAG or DMSO to the amplitudes before application of them (I10th/I0). Mean and S.D. are shown as bars (n = 8–12). n.s.: p> 0.05.
# ΔN-THIK-2 channel = target: T2, ΔN-THIK-2 channel (Mus musculus, UniProt F6UVE5); assay: Effect of DAG analogue on ΔN-THIK-2 channel current (I10th/I0) in CHO-K1 cells; assay type: cell-based; settings: 10 and 30 μM
# T2 construct: expressed in transfected cells; host or cells: CHO-K1
# T2 sequence (F6UVE5 with tags, fused parts or gaps): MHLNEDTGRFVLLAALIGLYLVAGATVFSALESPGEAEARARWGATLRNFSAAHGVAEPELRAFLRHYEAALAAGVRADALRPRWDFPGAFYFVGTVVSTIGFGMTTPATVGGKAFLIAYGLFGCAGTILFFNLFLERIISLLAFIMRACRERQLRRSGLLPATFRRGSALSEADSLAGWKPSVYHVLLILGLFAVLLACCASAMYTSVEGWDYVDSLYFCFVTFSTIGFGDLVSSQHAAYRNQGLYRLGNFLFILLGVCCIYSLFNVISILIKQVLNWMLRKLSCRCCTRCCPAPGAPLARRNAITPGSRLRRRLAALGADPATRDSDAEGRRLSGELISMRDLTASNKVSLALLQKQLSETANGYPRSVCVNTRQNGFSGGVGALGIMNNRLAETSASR
# Source text: as §1
# Fig 7 Effect of C-Ala mutation or OAG on ΔN-THIK-2 channel. (A) Current-voltage relationships before and after stimulation of mGlu2. […]. (B) Effects of the mGlu2 activation on the ΔN-THIK-2 and C-Ala mutants. […]. Mean and S.D. are shown as bars (n = 11–12). (C) Current-voltage relationships before and after application of OAG. The current-voltage relationships before and 50 sec after application of OAG are shown (black and red lines, respectively). The tested concentration of OAG was 10 μM (left) and 30 μM (right). (D) Effects of OAG on the ΔN-THIK-2 channel. The ratio (I10th/I0) are not different between OAG applied group (filled circles) and vehicle applied group (open circles). Mean and S.D. are shown as bars (n = 7–11). **: 0.001<p≤ 0.01, n.s.: p> 0.05.
# mGlu2 = target: T3, mGlu2 (Rattus norvegicus, UniProt P31421); assay: mGlu2-induced increase of THIK-1 channel current, whole cell patch clamp in HEK293T cells; assay type: cell-based; settings: concentration response of THIK-1 current increase
# T3 construct: expressed in transfected cells; host or cells: HEK293T
# Source text: (§2) Coding region of mGu2 (M1-P840) was amplified by conventional PCR with designed primers and the resulting product was subcloned into pEYFP-N1 vector at the BglII and EcoRI sites. The cDNAs for mouse THIK-2 channel and dimeric THIK channels were subcloned into pcDNA3.1(-) vector. To increase the surface membrane expression of the THIK-2 channel, 29 residues (Ser2-Ser30) were removed (ΔN-THIK-2). […] Ci-VSP-IRES-GFP vector was kindly gifted by Dr. Y. Okamura (Osaka University, Osaka, Japan). HEK293T cells or CHO-K1 cells were seeded on glasses and transfected with the plasmid DNAs for THIK channels, receptors and a transfection marker of yellow fluorescent protein (YFP). Electrophysiological experiments were performed 24–72 h after the transfection. […] Pertussis toxin (PTX) was purchased from Wako (Osaka, Japan). […] All reagents were dissolved at high concentration and stored at -20 °C as the stock solutions. The stock reagent solution was diluted at concentrations for the electrophysiological experiments. […]
# (§3) The amplitude of the THIK-1 channel current at 0 mV was measured from every trace induced by the ramp pulse protocol to minimize the fraction of non-selective cationic leak current. […] The effects of GPCRs on the THIK-1 channel were evaluated as the ratio of the current amplitude after the agonist application to I0 (Iagonist/I0). […]
# [2] = system: endogenously expressed channels in HEK293T cells; assay: Effect of receptor stimulation on the endogenous current in HEK293T cells without THIK-1; assay type: cell-based
# Source text: The amplitude of the current increase at the 15th trace (ΔI15th) after the application of GABA or oxo-M were normalized to that at the 5th traces (ΔI5th) with or without additional activation of A2aR (ΔI15th/ΔI5th).
# The current density at 0 mV (I0) in HEK293T cell transfected with indicated receptors and the effects of the receptor stimulation are shown as Mean and S.D.
# [3] = target: T4, mGlu2-YFP / ΔN-THIK-2 channel (Rattus norvegicus, UniProt P31421); assay: mGlu2-YFP-induced increase of ΔN-THIK-2 channel current in CHO-K1 cells; assay type: cell-based, mouse; settings: PTX treated cells, glutamate 200 μM
# T4 construct: Coding region of mGu2 (M1-P840) was amplified by conventional PCR; expressed in transfected cells; host or cells: CHO-K1
# Source text: as §2, with “experiments. PTX was solved in the culture medium (final concentration, 300 ng/mL) and cells were incubated in it for more than 16 h. U73122 or U73343 (final concentration, 2 μM each) was dissolved in Hanks’ Balanced Salt Solution (HBSS, Invitrogen, Carlsbad, CA, USA) supplemented with 1 mM Ca^2+ and 0.3 mM Mg^2+.” for “experiments.”
# GABABR = target: T5, GABABR (Homo sapiens, UniProt Q9UBS5); assay: GABABR-induced increase of THIK-1 channel current, whole cell patch clamp in HEK293T cells; assay type: cell-based; settings: PTX 300 ng/mL, more than 16 h
# T5 construct: expressed in transfected cells; host or cells: HEK293T
# Source text: as §2, §3
# THIK-1 channel [4] = assay: Basal current (I0) density of THIK-1 channel at 0 mV in HEK293T cells; assay type: cell-based; settings: 0 mV, before agonist
# Source text: Coding region of mGu2 (M1-P840) was amplified by conventional PCR with designed primers and the resulting product was subcloned into pEYFP-N1 vector at the BglII and EcoRI sites. The cDNAs for mouse THIK-2 channel and dimeric THIK channels were subcloned into pcDNA3.1(-) vector. To increase the surface membrane expression of the THIK-2 channel, 29 residues (Ser2-Ser30) were removed (ΔN-THIK-2). […] Ci-VSP-IRES-GFP vector was kindly gifted by Dr. Y. Okamura (Osaka University, Osaka, Japan). HEK293T cells or CHO-K1 cells were seeded on glasses and transfected with the plasmid DNAs for THIK channels, receptors and a transfection marker of yellow fluorescent protein (YFP). Electrophysiological experiments were performed 24–72 h after the transfection. […] Pertussis toxin (PTX) was purchased from Wako (Osaka, Japan). […] All reagents were dissolved at high concentration and stored at -20 °C as the stock solutions. The stock reagent solution was diluted at concentrations for the electrophysiological experiments. PTX was solved in the culture medium (final concentration, 300 ng/mL) and cells were incubated in it for more than 16 h. U73122 or U73343 (final concentration, 2 μM each) was dissolved in Hanks’ Balanced Salt Solution (HBSS, Invitrogen, Carlsbad, CA, USA) supplemented with 1 mM Ca^2+ and 0.3 mM Mg^2+. Cells were incubated in HBSS with U73122 or U73343 for 10 min at room temperature before the whole cell current recording.
# Composition of bath solution was (in mM) 140 NaCl, 4 KCl, 1 CaCl2, 0.3 MgCl2, 10 HEPES (pH 7.4 adjusted with NaOH). The pipette solution for whole cell patch clamp experiments contained (mM) 130 KCl, 5 Na2-ATP, 3 EGTA, 0.1 CaCl2, 10 HEPES, 4 MgCl2, (pH 7.3 adjusted with KOH). GTP (0.3 mM) was supplemented in the pipette solution. Once the whole cell configuration was established, the cell was held at -80mV and ramp pulses (-120mV to +40mV for 0.4 sec) were applied every 5 sec. Various concentrations of the agonists were applied using a fast perfusion system (VC77SP, Warner Instruments, Hamden, CT, USA). The PKC inhibitor chelerythrine was included in the pipette solution.
# The amplitude of the THIK-1 channel current at 0 mV was measured from every trace induced by the ramp pulse protocol to minimize the fraction of non-selective cationic leak current. The current amplitude before the agonist application was set as the basal current amplitude (I0). The effects of GPCRs on the THIK-1 channel were evaluated as the ratio of the current amplitude after the agonist application to I0 (Iagonist/I0). The EC50 values were estimated by fitting the concentration response curve to a Hill equation (Origin2016; OriginLab, Northampton, MA, USA). […] The effects of A2aR on the Gi/o-R-induced current increase of the THIK-1 channel was estimated as follows. […] All data are shown as means and S.D. The statistical significance between two or more than two groups was estimated by unpaired Student’s t-test or by a one-way analysis of variance (ANOVA) followed by Tukey’s test, respectively. […] Values of p≤ 0.05 were considered as statistically significant (***:p≤0.001, **:0.001<p≤0.01, *:0.01<p≤0.05, n.s.:p>0.05).
# T5 sequence (Q9UBS5 15-961 limits assumed): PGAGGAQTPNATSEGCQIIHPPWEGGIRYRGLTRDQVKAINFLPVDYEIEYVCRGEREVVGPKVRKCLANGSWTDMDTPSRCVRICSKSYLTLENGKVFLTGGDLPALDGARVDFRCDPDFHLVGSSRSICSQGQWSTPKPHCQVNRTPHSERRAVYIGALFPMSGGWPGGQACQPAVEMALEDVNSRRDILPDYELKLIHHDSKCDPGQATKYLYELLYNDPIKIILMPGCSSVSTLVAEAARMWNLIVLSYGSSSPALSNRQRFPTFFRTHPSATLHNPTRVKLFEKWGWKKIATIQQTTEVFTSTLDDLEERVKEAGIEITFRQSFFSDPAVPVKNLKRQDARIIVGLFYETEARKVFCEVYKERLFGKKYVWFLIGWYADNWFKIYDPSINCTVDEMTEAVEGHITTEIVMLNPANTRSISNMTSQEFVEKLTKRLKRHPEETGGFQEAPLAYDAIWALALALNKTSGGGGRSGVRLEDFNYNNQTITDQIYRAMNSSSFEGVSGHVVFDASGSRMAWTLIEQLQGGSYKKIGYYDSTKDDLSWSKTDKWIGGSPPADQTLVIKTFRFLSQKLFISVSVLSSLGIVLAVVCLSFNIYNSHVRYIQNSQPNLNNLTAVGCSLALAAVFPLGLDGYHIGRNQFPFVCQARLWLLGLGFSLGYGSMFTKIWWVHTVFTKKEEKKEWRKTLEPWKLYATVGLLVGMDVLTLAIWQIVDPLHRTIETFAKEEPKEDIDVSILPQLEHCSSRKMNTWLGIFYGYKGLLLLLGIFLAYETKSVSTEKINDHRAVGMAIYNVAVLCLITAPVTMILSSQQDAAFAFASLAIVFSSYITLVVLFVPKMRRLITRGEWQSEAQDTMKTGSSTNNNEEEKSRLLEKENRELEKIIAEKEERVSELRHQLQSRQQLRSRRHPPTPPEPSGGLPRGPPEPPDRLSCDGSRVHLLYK
# T5 sequence (O75899 42-941 partner): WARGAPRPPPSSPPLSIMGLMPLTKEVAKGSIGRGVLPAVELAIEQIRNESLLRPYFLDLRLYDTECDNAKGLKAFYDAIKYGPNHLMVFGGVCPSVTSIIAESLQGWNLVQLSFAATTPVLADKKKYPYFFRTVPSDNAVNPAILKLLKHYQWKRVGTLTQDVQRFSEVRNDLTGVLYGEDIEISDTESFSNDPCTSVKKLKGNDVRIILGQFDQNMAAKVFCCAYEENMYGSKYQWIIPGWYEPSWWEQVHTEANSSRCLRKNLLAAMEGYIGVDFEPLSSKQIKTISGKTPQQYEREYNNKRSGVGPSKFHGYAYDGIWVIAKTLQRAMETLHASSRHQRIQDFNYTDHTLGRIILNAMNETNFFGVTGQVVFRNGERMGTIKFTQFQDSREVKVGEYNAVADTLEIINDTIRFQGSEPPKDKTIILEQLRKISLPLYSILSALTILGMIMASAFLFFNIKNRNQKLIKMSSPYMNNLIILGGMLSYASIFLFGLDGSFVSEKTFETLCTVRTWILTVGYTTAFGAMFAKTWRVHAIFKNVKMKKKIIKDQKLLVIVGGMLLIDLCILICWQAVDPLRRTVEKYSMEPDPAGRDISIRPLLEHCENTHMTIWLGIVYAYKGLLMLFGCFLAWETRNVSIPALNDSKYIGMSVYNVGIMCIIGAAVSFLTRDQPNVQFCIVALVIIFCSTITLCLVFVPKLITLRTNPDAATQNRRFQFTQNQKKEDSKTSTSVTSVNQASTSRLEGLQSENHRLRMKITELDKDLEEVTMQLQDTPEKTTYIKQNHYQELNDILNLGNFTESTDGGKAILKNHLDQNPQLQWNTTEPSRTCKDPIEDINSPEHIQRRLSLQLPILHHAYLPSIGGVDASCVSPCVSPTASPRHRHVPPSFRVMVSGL
# T3 sequence (P31421 19-872): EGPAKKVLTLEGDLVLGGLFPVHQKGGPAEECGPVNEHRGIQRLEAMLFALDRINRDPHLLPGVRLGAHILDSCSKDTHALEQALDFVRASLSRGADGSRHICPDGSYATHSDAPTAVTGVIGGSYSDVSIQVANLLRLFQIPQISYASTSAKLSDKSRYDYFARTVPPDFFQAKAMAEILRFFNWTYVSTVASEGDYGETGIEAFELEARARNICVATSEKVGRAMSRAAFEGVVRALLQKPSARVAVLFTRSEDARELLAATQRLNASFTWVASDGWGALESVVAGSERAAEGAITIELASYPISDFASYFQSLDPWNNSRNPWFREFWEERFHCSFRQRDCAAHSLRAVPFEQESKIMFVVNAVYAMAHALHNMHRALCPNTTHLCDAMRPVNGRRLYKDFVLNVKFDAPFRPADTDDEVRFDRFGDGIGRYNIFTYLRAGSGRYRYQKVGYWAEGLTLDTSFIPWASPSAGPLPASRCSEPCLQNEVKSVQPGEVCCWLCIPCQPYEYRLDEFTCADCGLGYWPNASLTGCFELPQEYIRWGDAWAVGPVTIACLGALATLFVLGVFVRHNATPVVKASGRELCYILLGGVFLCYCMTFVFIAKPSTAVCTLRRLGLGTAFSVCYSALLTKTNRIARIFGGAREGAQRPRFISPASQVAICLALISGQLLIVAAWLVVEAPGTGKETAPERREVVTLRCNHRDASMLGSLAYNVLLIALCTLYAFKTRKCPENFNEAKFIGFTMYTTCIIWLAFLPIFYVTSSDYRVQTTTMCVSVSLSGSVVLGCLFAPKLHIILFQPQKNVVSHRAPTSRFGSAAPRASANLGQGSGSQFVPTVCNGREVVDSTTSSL
# T4 sequence (P31421 19-840, stated change not applied): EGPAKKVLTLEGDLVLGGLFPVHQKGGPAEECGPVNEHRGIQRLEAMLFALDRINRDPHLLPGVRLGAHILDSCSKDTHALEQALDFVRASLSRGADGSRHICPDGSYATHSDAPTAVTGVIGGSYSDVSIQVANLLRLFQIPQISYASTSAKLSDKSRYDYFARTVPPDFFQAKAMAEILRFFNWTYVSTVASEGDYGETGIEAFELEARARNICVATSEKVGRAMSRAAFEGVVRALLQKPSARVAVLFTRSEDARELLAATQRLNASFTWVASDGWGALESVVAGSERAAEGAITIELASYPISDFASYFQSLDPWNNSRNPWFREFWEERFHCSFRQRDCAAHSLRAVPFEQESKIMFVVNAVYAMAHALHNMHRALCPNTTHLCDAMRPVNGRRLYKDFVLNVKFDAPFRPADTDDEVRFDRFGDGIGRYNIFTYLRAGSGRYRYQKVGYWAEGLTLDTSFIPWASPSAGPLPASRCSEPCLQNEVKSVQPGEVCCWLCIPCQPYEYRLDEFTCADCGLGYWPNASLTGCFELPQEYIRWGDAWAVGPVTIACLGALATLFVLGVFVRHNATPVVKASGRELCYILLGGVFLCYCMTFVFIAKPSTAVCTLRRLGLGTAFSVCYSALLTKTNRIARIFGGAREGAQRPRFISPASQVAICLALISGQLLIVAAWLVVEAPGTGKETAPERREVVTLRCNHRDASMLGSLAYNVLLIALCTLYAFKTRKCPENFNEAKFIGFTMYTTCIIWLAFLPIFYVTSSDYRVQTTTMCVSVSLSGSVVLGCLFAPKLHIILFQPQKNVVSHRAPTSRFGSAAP
compound,measurement,setting,value
"CCCCCCCC/C=C\CCCCCCCC(=O)OC[C@H](CO)OC(C)=O [OAG, 1-oleoyle-2-acetyl-sn-glycerol]",increase in the amplitude of the THIK-1 channel current (I10th/I0) versus vehicle (DMSO),THIK-1 channel [1],not significantly different
same,current amplitude of ΔN-THIK-2 channel,ΔN-THIK-2 channel,did not increase the current amplitude
"N[C@@H](CCC(=O)O)C(=O)O [glutamate, L-glutamate]",n; Hill coefficient,mGlu2,1.19 ± 0.65
same,Effect of agonist (Iagonist/I0),"[2]; HEK293T transfected with mGlu1, no THIK-1",0.98 ± 0.17
same,Effect of agonist (Iagonist/I0),"[2]; HEK293T transfected with mGlu2, no THIK-1",0.92 ± 0.06
Pertussis toxin [PTX],effect of mGlu2-YFP on ΔN-THIK-2 channel after inhibitor treatment,[3],inhibited
same,effect of GABA on the THIK-1 channel after inhibitor treatment,GABABR,not observed
same,Basal current (I0) density of THIK-1 channel,"THIK-1 channel [4]; THIK-1 + GABABR, + PTX (300 ng/mL)",170.6 ± 58.2 (7)^n.s. pA/pF
same,Basal current (I0) density of THIK-1 channel,"THIK-1 channel [4]; THIK-1 + M2R, + PTX (300 ng/mL)",168.6 ± 141.2 (6)^n.s pA/pF
same,Basal current (I0) density of THIK-1 channel,"THIK-1 channel [4]; THIK-1 + mGlu2, + PTX (300 ng/mL)",281.87 ± 148.3 (5)^n.s. pA/pF
